In ChEMBL document CHEMBL2029300, “Discovery of a Potent Retinoid X Receptor Antagonist Structurally Closely Related to RXR Agonist NEt-3IB” (ACS Med Chem Lett, 2011):
Active and inactive are the calls of the source. The rule behind the calls is not given here.

Key:
[1] = target: T1, Retinoic acid receptor RXR-alpha (Homo sapiens) (UniProt P19793); experiment: (§1) Antagonist activity at RXRalpha expressed in COS1 cells assessed as inhibition of NEt-TMN-induced luciferase activity after 18 hrs by reporter gene assay relative to LGD1069; assay type: functional, cell-based; conditions: COS-1
T1 sequence (whole entry): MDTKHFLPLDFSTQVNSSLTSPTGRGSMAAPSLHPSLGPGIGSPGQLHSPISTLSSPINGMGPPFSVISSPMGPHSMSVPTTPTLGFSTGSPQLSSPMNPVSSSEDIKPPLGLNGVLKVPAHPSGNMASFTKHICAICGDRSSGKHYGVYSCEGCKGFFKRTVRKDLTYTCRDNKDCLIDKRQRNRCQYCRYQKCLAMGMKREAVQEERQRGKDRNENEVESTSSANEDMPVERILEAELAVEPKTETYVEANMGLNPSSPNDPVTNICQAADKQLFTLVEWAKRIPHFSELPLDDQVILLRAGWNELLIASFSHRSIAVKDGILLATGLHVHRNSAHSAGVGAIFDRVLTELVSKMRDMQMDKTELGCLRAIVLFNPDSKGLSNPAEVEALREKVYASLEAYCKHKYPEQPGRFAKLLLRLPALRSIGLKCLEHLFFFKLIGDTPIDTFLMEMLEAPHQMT

[2] = target: T2, Retinoic acid receptor RXR-alpha (Homo sapiens, UniProt P19793); experiment: as §1; assay type: functional, cell-based, COS-1
T2 sequence (P19793 whole entry): T1 sequence (whole entry)

[3] = target: T2, Retinoic acid receptor RXR-alpha; experiment: Antagonist activity at RXRalpha expressed in COS1 cells assessed as inhibition of NEt-3IP-induced luciferase activity after 18 hrs by reporter gene assay relative to LGD1069; assay type: functional, cell-based, COS-1

Activity [1]	Kb [2] [nM]	Kb [3] [nM]	SMILES
Active	5.89	5.5	CCN(c1ccc(C(=O)O)cn1)c1cc(OCC(C)C)c(C(C)C)cc1/C=C/c1ccccc1
Active			CCN(c1ccc(C(=O)O)cn1)c1cc(OCC(C)C)c(C(C)C)cc1Nc1ccccc1
Active	77.6		CCCCCCOc1cc2c(cc1N(C)c1ncc(C(=O)O)cn1)C(C)(C)CCC2(C)C
inactive			CCN(c1ccc(C(=O)O)cn1)c1cc(OCC(C)C)c(C(C)C)cc1-c1ccccc1
